Assay [1] has as its target T1, human κ opioid receptor (KOP) over-expressed in CHO cells (Homo sapiens, UniProt P41145).
T1 construct: host or cells: CHO cells; membrane homogenates
Kind of assay: [35S]GTPγS binding assay, functional antagonism (Ke) vs U69,593. Conditions: agonist U69,593, read-out: apparent affinity (Ke) of antagonists, KOP. The assay is classed as biochemical. The protocol:
(§1) All compounds were initially screened for intrinsic and antagonist activity at 10 μM in the [^35S]GTPγS binding assay at the human κ, and the μ, and δ opioid receptors over-expressed in CHO cells. These cell lines were kindly provided by Temple University (κ) and SRI International (μ and δ). Compounds identified as antagonist were characterized for functional antagonism (Ke) and selectivity by measuring the ability of the test compounds to inhibit stimulated [^35S]GTPγS binding produced by one of the selective agonists DAMGO (μ), DPDPE (δ), or U69,593 (κ). Agonist concentration-response curves were run in the presence or absence of a single concentration of test compound.
(§2) The test compounds were assayed in duplicate in 1.4-mL polypropylene tubes in a 96-well format. CHO membrane homogenates (20-40 µg protein) were incubated with a positive control or the test compound, 0.1 nM [^35S]GTP-γ-S and 1 μM GDP in 50 mM HEPES buffer (pH 7.4) at room temperature for 1 h, after which bound radioligand was separated from free radioligand via rapid vacuum filtration over GF-B filters with a Brandel Scientific (Gaithersburg, Md.) 96-well harvester. Bound radioactivity is determined using a TopCount 12-detector instrument (Packard Instruments) using standard scintillation counting techniques. Bound radioactivity is normalized to samples containing vehicle (basal binding). […] The Ke values were calculated using the formula Ke=[L]/DR−1, where [L] is the concentration of test compound, and DR is the ratio of agonist EC50 value in the presence or absence of test compound.

Assay [2] deals with T1, human κ opioid receptor (KOP) over-expressed in CHO cells. The settings on record: from Hartung et al., cited from earlier work; for Ke at the KOP: J. Nat. Prod. 2014, 77, 311.
For assay [3], the target named is T2, human μ opioid receptor (MOP) over-expressed in CHO cells (Homo sapiens, UniProt P35372).
T2 construct: host or cells: CHO cells; membrane homogenates
Kind of assay: [35S]GTPγS binding assay, functional antagonism (Ke) vs DAMGO. The assay is classed as biochemical. Conditions: agonist DAMGO, read-out: apparent affinity (Ke) of antagonists, MOP. As to the method:
as §1, §2
For orientation: GTPγS is a poorly hydrolysed GTP analogue; its binding reports G protein activation.

The target in assay [4] is T3, human δ opioid receptor (DOP) over-expressed in CHO cells (Homo sapiens, UniProt P41143).
T3 construct: host or cells: CHO cells; membrane homogenates
Kind of assay: [35S]GTPγS binding assay, functional antagonism (Ke) vs DPDPE. The settings on record: for Kb: [35S]GTPγS, agonist DPDPE, read-out: apparent affinity (Ke) of antagonists, DOP. It counts as biochemical. As to the method: as §1, §2

Assay [5] deals with human κ, μ and δ opioid receptors over-expressed in CHO cells. Kind of assay: [35S]GTPγS binding assay, screen for intrinsic agonist activity. The assay is classed as biochemical. Conditions: screened at 10 μM. As to the method:
as §1
The test compounds were assayed in duplicate in 1.4-mL polypropylene tubes in a 96-well format. […] Bound radioactivity is determined using a TopCount 12-detector instrument (Packard Instruments) using standard scintillation counting techniques. Bound radioactivity is normalized to samples containing vehicle (basal binding). […] The Ke values were calculated using the formula Ke=[L]/DR−1, where [L] is the concentration of test compound, and DR is the ratio of agonist EC50 value in the presence or absence of test compound. […]

SMILES strings stand for the structures. A value given as a limit tells only on which side of the number the result lay.

T3 sequence (P41143 whole entry): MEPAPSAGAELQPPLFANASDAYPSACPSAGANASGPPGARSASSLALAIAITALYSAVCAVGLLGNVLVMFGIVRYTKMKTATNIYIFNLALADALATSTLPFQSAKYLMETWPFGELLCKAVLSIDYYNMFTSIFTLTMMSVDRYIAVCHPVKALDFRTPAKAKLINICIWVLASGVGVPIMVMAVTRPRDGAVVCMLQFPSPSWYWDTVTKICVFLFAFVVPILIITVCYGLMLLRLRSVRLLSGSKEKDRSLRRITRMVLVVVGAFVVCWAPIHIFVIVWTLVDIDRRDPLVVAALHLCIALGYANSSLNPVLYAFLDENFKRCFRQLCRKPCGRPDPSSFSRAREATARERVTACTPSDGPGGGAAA
T1 sequence (P41145 whole entry): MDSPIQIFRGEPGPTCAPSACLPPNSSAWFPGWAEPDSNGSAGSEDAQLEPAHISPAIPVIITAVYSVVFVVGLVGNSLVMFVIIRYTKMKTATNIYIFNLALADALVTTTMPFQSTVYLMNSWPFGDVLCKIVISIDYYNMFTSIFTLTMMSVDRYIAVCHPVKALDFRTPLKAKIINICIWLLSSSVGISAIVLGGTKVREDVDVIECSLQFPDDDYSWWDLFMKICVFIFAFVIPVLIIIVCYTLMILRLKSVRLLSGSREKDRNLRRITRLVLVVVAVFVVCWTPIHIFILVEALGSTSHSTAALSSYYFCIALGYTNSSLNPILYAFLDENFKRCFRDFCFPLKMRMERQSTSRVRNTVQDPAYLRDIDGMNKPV
T2 sequence (P35372 whole entry): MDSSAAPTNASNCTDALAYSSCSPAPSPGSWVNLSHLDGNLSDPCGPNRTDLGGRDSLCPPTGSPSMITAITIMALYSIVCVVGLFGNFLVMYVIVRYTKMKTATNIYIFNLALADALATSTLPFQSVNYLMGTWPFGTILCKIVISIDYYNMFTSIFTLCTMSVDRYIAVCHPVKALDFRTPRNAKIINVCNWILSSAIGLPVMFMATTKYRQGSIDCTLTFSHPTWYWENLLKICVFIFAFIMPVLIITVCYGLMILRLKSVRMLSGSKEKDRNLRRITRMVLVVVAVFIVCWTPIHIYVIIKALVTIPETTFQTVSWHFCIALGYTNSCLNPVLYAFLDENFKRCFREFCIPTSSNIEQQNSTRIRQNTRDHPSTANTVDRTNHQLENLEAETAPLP

As to `CC(C)=CCC/C(C)=C/Cc1c(O)cc(O)cc1/C=C/c1ccc(O)c(O)c1CC=C(C)C` [Compound 1, pawhuskin A], the Kb in assay [1] is 200 nM; in assay [3] it was 570000 nM; in assay [4], 2900 nM. Besides, the “Ke at the KOP” value in assay [2] is 0.20 µM.
In the case of `COc1cc(/C=C/c2cc(O)c(O)c(CC=C(C)C)c2)c(C/C=C(\C)CCC=C(C)C)c(OC)c1` [Compound 3, 5-((E)-2-((E)-3,7-dimethylocta-2,6-dien-1-yl)-3,5-dimethoxystyryl)-3-(3-methylbut-2-en-1-yl)benzene-1,2-diol], the Kb in assay [1] was 150 nM; in assay [3] it was over 10000 nM; in assay [4], over 10000 nM. In assay [2], the “Ke at the KOP” value was 0.15 µM. The δ/κ selectivity in assay [2] (J. Nat. Prod. 2014) is over 67. The μ/κ selectivity in assay [2] (J. Nat. Prod. 2014) is over 67.
With `COc1cc(/C=C/c2ccc(O)c(O)c2CC=C(C)C)c(C/C=C(\C)CCC=C(C)C)c(OC)c1` [Compound 4], the Kb is over 10000 nM in assay [1], over 10000 nM in assay [3] and 25 nM in assay [4]. In addition, the KOP/DOP selectivity in assay [4] (ratio of Ke values) is listed as over 400. Further, in assay [4] (ratio of Ke values), the MOP/DOP selectivity is over 400. The intrinsic agonist activity result in assay [5] was “no agonist activity”.

The values are drawn from patent US20170107173A1, “THERAPEUTIC COMPOUNDS AND METHODS” (UNIVERSITY OF IOWA RESEARCH FOUNDATION, priority 2015, published 2017).
